Reference: patent publication US4111955A, “N-Trihalomethanesulfenyl carbamoyloximino di-sulfur heterocyclic compounds” (priority 1976, dated 1978)
Converted amounts (≈) assume the structure as drawn.

Tests used:
[1] = system: aphid, mite, Southern Armyworm, Bean Beetle and House fly; assay: Overall pesticidal activity / insect toxicity compared with methylcarbamoyl derivatives; type: in vivo; conditions: all cases except the bean-beetle; Table II
Text: (§1) In these tests the pesticidal activity of the compounds against aphid, mite, Southern Armyworm, Bean Beetle and House fly was rated as follows:
In the above Table, A indicates excellent control, B indicates partial control and C indicates no control. For comparison purposes, there is provided immediately below the data presented for the trihalomethanesulfenyl derivative the activity measurements achieved from the corresponding methyl-carbamoyl derivative adjacent to the chemical designation --NHCH3.
(§2) The LD50 values shown in the above Table II were determined by testing the compositions over an appropriate concentration range obtained by serial dilution of the stock suspension with water. The percent kill was plotted on log-probit graph paper versus parts per million concentration, and the LD50 read from an eye-fitted line drawn through the resultant points.

[2] = system: bean aphid (Aphis fabae Scop.); assay: Bean Aphid Foliage Spray Test; type: in vivo; set-up: key to pesticidal activity rating, Aphid: A: excellent control; B: partial control; C: no control
Protocol: Adults and nymphal stages of the bean aphid (Aphis fabae Scop.) reared on potted dwarf nasturtium plants at 65°-70° F. and 50-70 percent relative humidity, constituted the test insects. For testing purposes, the number of aphids per pot was standardized to 100-150 by trimming plants containing excess aphids.
The test compounds were formulated by diluting the stock suspension with water to give a suspension containing 500 parts of test compound per million parts of final formulation.
The potted plants (one pot per compound tested) infested with 100-150 aphids, were placed on a revolving turntable and sprayed with 100-110 milliliters of test compound formulation by use of a DeVilbiss spray gun set at 40 psig. air pressure. This application, which lasted 25 seconds, was sufficient to wet the plants to run-off. As a control, 100-110 milliliters of a water-acetone-emulsifier solution containing no test compound were also sprayed on infested plants. After spraying, the pots were placed on their sides on a sheet of white standard mimeograph paper which had been previously ruled to facilitate counting. Temperature and humidity in the test room during the 24 hour holding period were 65°-70° F. and 50-70 percent, respectively. Aphids which fell onto the paper and were unable to remain standing after being uprighted were considered dead. Aphids remaining on the plants were observed closely for movement and those which were unable to move the length of the body upon stimulation by prodding were considered dead. Percent mortality was recorded for various concentration levels.
as §1, §2

[3] = system: house flies (Musca domestica, L.); assay: Fly Bait Test; type: in vivo; set-up: key to pesticidal activity rating, Housefly: A: excellent control; B: partial control; C: no control
Protocol: Four to 6 day old adult house flies (Musca domestica, L.), reared according to the specifications of the Chemical Specialities Manufacturing Association (Blue Book, McNair-Dorland Co., N.Y. 1954; pages 243-244, 261) under controlled conditions of 80°±5° F. and 50±5 percent relative humidity, were the test insects. The flies were immobilized by anesthetizing with carbon dioxide and twenty five immobilized individuals, males and females, were transferred to a cage consisting of a standard food strainer about 5 inches in diameter which was inverted over a wrapping-paper-covered surface. The test compounds were formulated by diluting the stock suspension with a 10 percent (by weight) sugar solution to give a suspension containing 500 parts of test compound per million parts of final formulation, by weight. Ten milliliters of the test formulation were added to a souffle cup containing a 1-inch square of an absorbent cotton pad. This bait cup was introduced and centered on the blotting paper under the food strainer prior to admitting the anesthetized flies. The caged flies were allowed to feed on the bait for 24 hours, at a temperature of 80°±5° F. and the relative humidity of 50±5 percent.
as §1, §2

[4] = Peroral toxicity to mammals (rat); type: in vivo; conditions: in vivo, po; rat, peroral, Table II; read-out: Rat P.O. LD50
Protocol: (§3) Certain of these compositions were also evaluated to determine their peroral toxicity to mammals. The animal selected for this experiment was the rat. The test results obtained are expressed in terms of the number of milligrams of composition per kilogram of weight of the animal required to achieve a mortality rate of 50 percent (LD50).

[5] = system: rat; assay: Peroral toxicity to mammals (rat); type: in vivo; conditions: fraction of the toxicity of the methylcarbamoyl compound; rat P.O. LD50
Protocol: as §3

[6] = system: mites; assay: Systemic miticidal activity (soil drench of infested bean plants); type: in vivo, Tetranychus urticae Koch; conditions: Table II
Protocol: (§4) Adults and nymphal stages of the two-spotted mite (Tetranychus urticae Koch), reared on Tendergreen bean plants at 80±5 percent relative humidity, were the test organisms. Infested leaves from a stock culture were placed on the primary leaves of two bean plants 6 to 8 inches in height, growing in a 21/2 inch clay pot. 150-200 Mites, a sufficient number for testing, transferred from the excised leaves to the fresh plants in a period of 24 hours. Following the 24 hour transfer period, the excised leaves were removed from the infested plants. The test compounds were formulated by diluting the stock suspension with water to give a suspension containing 500 parts of test compound per million parts of final formulation. The potted plants (one pot per compound) were placed on a revolving turntable and sprayed with 100-110 milliliters of test compound formulation by use of a DeVilbiss spray gun set at 40 psig. air pressure. This application, which lasted 25 seconds, was sufficient to wet the plants to run-off. As a control, 100-110 milliliters of a water solution containing acetone and emulsifier in the same concentrations as the test compound formulation, but containing no test compound, were also sprayed on infested plants. The sprayed plants were held at 80±5 percent relative humidity for 6 days, after which a mortality count of motile forms was made. Microscopic examination for motile forms was made on the leaves of the test plants. Any individual which was capable of locomotion upon prodding was considered living.
as §2
Systemic treatments were made by drenching 20 milliliters of the test compound formulation into the soil around the roots of bean plants growing in 21/2 inch clay pots. […]

[7] = system: two-spotted mite (Tetranychus urticae Koch); assay: Mite Foliage Spray Test; type: in vivo; set-up: key to pesticidal activity rating, Mite: A: excellent control; B: partial control; C: no control
Protocol: as §4, §1, §2

Question: Which “insect toxicity relative to the methylcarbamoyl composition” value [1] does the source give for `CN(SC(Cl)(Cl)Cl)C(=O)ON=C1CSCCS1` [2-[(N-METHYL-N-TRICHLOROMETHANESULFENYL)-CARBAMOYLOXIMINO]-1,4-DITHIANE] here?
Answer: essentially equivalent

Question: What about the “pesticidal activity rating, Aphid” value ([2]; 500 parts per million, 24 hour) of the same compound?
Answer: A

Question: What about the LC50 ([2]; Aphis fabae, foliar, 24 h, Table II, read-out: Insect Toxicity, LD50, Aphid) of the same compound?
Answer: 13 µg/mL (≈ 36.5 µM)

Question: What about the “pesticidal activity rating, Housefly” value ([3]; 500 parts per million, 24 hours) of the same compound?
Answer: A

Question: And the LC50 ([3]; Musca domestica, 24 h, Table II, read-out: Insect Toxicity, LD50, House fly)?
Answer: 2 µg/mL (≈ 5.62 µM)

Question: And the LD50 [4]?
Answer: 149 mg/kg

Question: And the “mammalian toxicity relative to the methylcarbamoyl compound” value [5]?
Answer: 1/10

Question: And the “systemic activity relative to the methylcarbamoyl composition” value [6]?
Answer: higher degree of systemic activity

Question: And the LC50 ([6]; Tetranychus urticae, systemic, soil drench, value in parentheses, read-out: Insect Toxicity, LD50, Mite, systemic activity)?
Answer: 3 µg/mL (≈ 8.43 µM)

Question: What about the “pesticidal activity rating, Mite” value ([7]; 500 parts per million, 6 days) of the same compound?
Answer: A

Question: And the LC50 ([7]; Tetranychus urticae, foliar, Table II, read-out: Insect Toxicity, LD50, Mite)?
Answer: 7 µg/mL (≈ 19.7 µM)
